Measured values: patent US7544711B2, “Use of nitroderivatives in urinary incontinence” (Nicox S.A., priority 1996, dated 2009)

What was measured:
[1] = tested on: normal urinary bladder strips; assay: Electrically induced contraction of urinary bladder strips, normal rats; format: cell-based, rat; conditions: 10^−6 M; normal tissue; 1/7 Hz electrical stimulation
Source text: (§1) The vesical hypertrophy model secondary to urethral obstruction in rats described by Malmgren A. et al.: Cystometrical evaluation of bladder instability in rats with intravesical outflow obstruction, The Journal of Urology, 1987, 137, 1291-1294, was used in order to evaluate the effect of the drugs on hyperactive vesical muscle.
(§2) Male Sprague Dawley rats weighing about 250 g were used. In order to obtain partial urethral obstruction, the rats were anaesthetised with Nembutal and the urinary bladder and urethra were exposed by abdominal incision. A ligature was made around the urethra in the presence of an intraluminal cannula with 1 mm diameter. After suturing the abdominal wall the animals were stabulated for 6 weeks in order for vesical hypertrophy to start.
(§3) The in vitro experiments were conducted with the parallel use of strips obtained from normal rats and rats with vesical hypertrophy.
(§4) The in vitro urinary bladder strips were prepared as described above and the inhibition induced by the drugs on contraction induced by 1/7 Hz electrical stimulation lasting 1 msec., an above maximal voltage, produced by two platinum electrodes, was measured.

[2] = tested on: hypertrophic urinary bladder strips; assay: Electrically induced contraction of urinary bladder strips, rats with vesical hypertrophy; format: cell-based, rat; conditions: 10^−6 M; hypertrophic tissue; 1/7 Hz electrical stimulation
Source text: as §1, §2, §3, §4

[3] = tested on: rat femoral artery strips; assay: Relaxing activity on vessel smooth muscle (phenylephrine-contracted femoral artery strips); format: cell-based; conditions: contractions induced by 3×10^−5 M phenylephrine
Source text: Male Wistar rats weighing 200 to 300 g were used. The method used is described by Zhou Q. et al. The inhibitory mechanism of nicorandil in isolated rat urinary bladder and femoral artery, European Journal of Pharmacology, 153-159, 1995. After sacrifing the rats by cervical displacement, the femoral arteries were isolated for the preparation of helicoidal strips about 1×15 mm in size, from which the endothelium was removed. The prepared strips were placed in baths for isolated organs containing Krebs liquid and subjected to a weight of 0.5 g. Tension variations during the test were isometrically measured by means of a pressure transducer connected to a polygraph. The inhibitory effect of a treatment with the test derivatives on contractions induced by 3×10^−5 M phenylephrine versus reference preparations having a potassium channel opening activity and/or NO donors was measured.

[4] = tested on: normal urinary bladder of conscious dogs; assay: Cystometrogram, normal urinary bladder of conscious dogs; format: in vivo, dog; conditions: 4 hours following dosing, IC=interval between contractions
Procedure: The cystometrogram of conscious dogs was determined in accordance with the method described by Howe B. B. et al., ZENECA ZD 6169: a NOVEL KATP Channel opener with in vivo selectivity for urinary bladder, Journal of Pharmacology and Experimental Therapeutics, 274, 884-890, 1995.
Female Beagle dogs with urinary bladder catheterised through the urethra by operating in sterile conditions, were used. Catheters were connected to a perfusor which perfused into the urinary bladder a physiological solution and to a pressure transducer in order to measure intravesical pressure. After 15 minute stabilisation, a 30 ml bolus of physiological solution was perfused into the urinary bladder in order to measure increased intravesical pressure and a series of smaller boluses were then perfused until spontaneous contractions were observed. After a period of contraction stabilisation, contracting activity was monitored for 60 minutes. The animals were then treated orally with the test products and urination frequency was then measured during 4 hours following dosing in […].

isolated rat detrusor = assay: Contraction inhibiting activity in isolated rat detrusor (40 mM KCl); format: cell-based
Procedure: Male Wistar rats weighing 200 to 300 g were used. The method used is described by Zhou Q. et al. (1995) (see Example 13). After sacrificing the rats by cervical displacement the urinary bladder was isolated and horizontal strips of detrusor muscle about 2 mm wide and about 5 mm long were obtained from the median region. The strips were placed in baths for isolated organs containing Krebs liquid and subjected to a 1 g tension. Tension variations during the test were measured isometrically by using a pressure transducer connected to a polygraph. The inhibitory effect of a pre-treatment with the test derivatives on contraction induced by 40 mM KCl was determined versus drugs having an opening potassium channel activity (cromakalin, nicorandil) nitroderivatives (nitroglycerin, nicorandil) and anti-inflammatories (indomethacin, naproxen, nimesulide).

nitroxy-sinthetase = biological target: T1, nitroxy-sinthetase (Rattus norvegicus, UniProt Q06518); assay: LPS-induced nitroxysynthetase activity in rat neutrofils after i.p. dosing; format: in vivo; conditions: 10 mg/kg i.p.; LPS 5 mg/kg i.v.; rat neutrofils four hours later; compared to the group treated with the vehicle alone
T1 construct: Blood was collected for neutrofil isolation; from tissue; host or cells: neutrophils isolated from blood of LPS-treated Wistar rats
Procedure: The nitroxy-sinthetase inhibiting activity induced by lipopolisaccharide (LPS) was determined in rat neutrofils after administration of any of the test compounds and compared with that obtained after treatment with the suspending vehicle alone (0.5% carboxymethyl cellulose, 5 ml/kg) and a product used as comparison. Briefly, Wistar rats fasted for 24 hours before treatment received one of the test compounds (10 mg/kg) intraperitoneally or the vehicle LPS (5 mg/kg) intravenously (caudal vein).
Four hours later the animals were sacrified. Blood was collected for neutrofil isolation.
The enzymatic activity was determined according to the od described by Assreuy J. et al. Feedback inhibition of nitric oxide sinthase activity by nitric oxide, British Journal of Pharmacology, […], 1993.

[5] = tested on: pig urethral smooth muscle; assay: Relaxing effect in pig urethral smooth muscle; format: cell-based; conditions: 10^−5 M; for Relaxation % 1: first treatment; for Relaxation % 1 / Relaxation % 2: 100% = highest relaxation in medium without Ca++; for Relaxation % 2: second consecutive treatment; for relaxing activity and tachyphylaxis (in words): two consecutive treatments
Procedure: Samples of urethra were removed from female pigs about 6 months old.
The urethra was opened longitudinally and samples of smooth muscle about 1×2×6 mm in size were removed from an area about 4 mm below ureteral orifices. The samples of smooth muscle were placed in baths for isolated organs, incubated at 37° C. and subjected to a 10 mN tension and connected to a force transducer for measuring mechanical activity. After a period of balancing of about 60 minutes, the prepared samples were exposed to Krebs solution without Ca++ to determine the highest relaxation level. Normal tone was then restored by adding Krebs solution. The relaxation effects of the test derivatives were then measured. The test wasa repeated two consecutive times for each prepared sample in order to evaluate any tachyphylaxis effects.

[6] = tested on: normal urinary bladder of conscious rats; assay: Cystometrogram, normal urinary bladder of conscious rats; format: in vivo, rat; conditions: 5 mg/kg oral, 4 hours after dosing, IC=interval between contractions
Procedure: Cystometrograms of conscious rats were determined according to the method described by Howe B. B et al. (1995) (see Example 9).
Male Wistar rats weighing about 500 g were used. The rats were anaesthetised with Nembutal. After opening their abdomen and exposing their urinary bladder, a catheter filled with physiological solution was implanted in the urinary bladder and caused to emerge from the back of the animals. The abdominal muscle and skin were then sutured. 48 hours after surgery the animals were placed in metabolic cages and the catheters were connected to a perfusor which perfused 0.18 ml/min of a physiological solution into the urinary bladder, and to a pressure transducer in order to measure intravesical pressure. After stabilisation for 60 minutes, the animals were orally treated with the test products and urination frequency was than measured during 4 hours after dosing.

[7] = tested on: normal urinary bladders of anaesthetised rats; assay: Urinary bladder voiding reflex in anaesthetised rats; format: in vivo, rat; conditions: 18 hours after last treatment, controls = 100
Procedure: 40 Sprague Dawley rats weighing about 300 g were randomly divided into 4 groups and orally treated twice a day for 4 days according to the following experimental scheme: 18 hours after the last treatment, the effects on the urinary bladder voiding reflex were evaluated using the method described by Maggi C. A. et al., Prostanoids modulate reflex micturition by acting through capsaicin-sensitive afferents, European Journal of Pharmacology, 105-112, 1988. The animals were anaesthetised with urethane, the urinary bladder was prepared for intraluminal pressure measurement. After a stabilisation period with an empty urinary bladder, this was progressively filled with a physiological solution by slow infusion (0.046 ml/min). A contraction of the urinary bladder was observed upon reflex triggering. The volume of physiological solution and intraluminal pressure required to evoke the reflex (volume and pressure thresholds) were measured. […] All tested products increased this threshold and can, therefore, be considered useful in case of detrusor instability.

[8] = tested on: gastroenteric tract of rats; assay: In vivo gastrointestinal safety study; set-up: species or system rat
Source text: Forty Sprague Dawley rats weighing about 300 g were randomly divided into 4 groups and orally treated twice a day for 4 days according to the following experimental scheme:
Eighteen hours after the last treatment the rats were sacrified to determine any gastrointestinal damage.

[9] = Rattus norvegicus, 10^−4 M, contraction induced by 40 mM KCl
[10] = 3 mg/kg oral twice a day for 4 days
[11] = 3 mg/kg oral twice a day for 4 days, rats
[12] = 5 mg/kg oral twice a day for 4 days

CC1(C)Oc2ccc(C#N)cc2C(N2CCCC2=O)C1O (centres unmarked) [Cromakalim]
Contraction % [1]: 50.5% | Contraction % [2]: 35.7% | inhibition at 0.3 µM ([3]; Rattus norvegicus, 3 × 10^−7 M): 54.1% | IC treated/IC baseline ([4]; 0.5 mg/kg oral): 1.48 | inhibition at 1 µM (isolated rat detrusor; Rattus norvegicus, 10^−6 M, contraction induced by 40 mM KCl): 33.3%

O=C(O)c1ccccc1Nc1cccc(C(F)(F)F)c1 [Flufenamic acid, 2-[[3-(trifluoromethyl)phenyl]-amino]benzoic acid]
NITROXY-SYNTHETASE ACTIVITY (nitroxy-sinthetase): 98 percentage | IC treated/IC baseline ([4]; 3 mg/kg oral): 1.42 | Relaxation % 1 [5]: 12.2% | Relaxation % 2 [5]: 13.2% | relaxing activity and tachyphylaxis (in words) [5]: has itself a myorelaxing activity | IC treated/IC baseline [6]: 1.42

COc1ccc2c(c1)c(CC(=O)O)c(C)n2C(=O)c1ccc(Cl)cc1 [Indomethacin]
Contraction % [1]: 78.2% | Contraction % [2]: 76.3% | IC treated/IC baseline ([4]; 3 mg/kg oral): 1.25 | Relaxation % 1 [5]: 1.0% | Relaxation % 2 [5]: 1.2% | relaxing activity and tachyphylaxis (in words) [5]: practically inactive | inhibition at 100 µM (isolated rat detrusor; [9]): 38.5% | IC treated/IC baseline [6]: 1.34 | Pressure threshold (%) [7, 10]: 190% | Volume threshold (%) [7, 10]: 198% | animals with diffuse adherences [8, 11]: 3/10 | animals with ulceration also in the intestines [8, 11]: 7/19 | gastrointestinal damage (in words) [8, 11]: ulceration was observed in the stomachs

N=C(N)NCCC[C@H](N)C(=O)O [L-arginine]
Relaxation % 1 [5]: 22.7% | Relaxation % 2 [5]: 12.2% | relaxing activity and tachyphylaxis (in words) [5]: active but induced tachyphylaxis

O=C(Oc1cccc(CO[N+](=O)[O-])c1)c1ccccc1Nc1cccc(C(F)(F)F)c1 [NO-F]
NITROXY-SYNTHETASE ACTIVITY (nitroxy-sinthetase): 63 percentage | IC treated/IC baseline ([4]; 3 mg/kg oral): 1.76 | Relaxation % 1 [5]: 45.8% | Relaxation % 2 [5]: 52.1% | IC treated/IC baseline [6]: 1.62 | Pressure threshold (%) [7, 12]: 203% | Volume threshold (%) [7, 12]: 205% | gastrointestinal damage (in words) ([8]; 5 mg/kg oral twice a day for 4 days, group of 10 rats): one animal with a gastric ulcer and an animal with a duodenal ulcer

COc1ccc2c(c1)c(CC(=O)Oc1cccc(CO[N+](=O)[O-])c1)c(C)n2C(=O)c1ccc(Cl)cc1 [NO-I]
Contraction % [1]: 61.5% | Contraction % [2]: 40.3% | inhibition at 100 µM ([3]; Rattus norvegicus, 10^−4 M): 22.2% | IC treated/IC baseline ([4]; 3 mg/kg oral): 1.43 | Relaxation % 1 [5]: 39.3% | Relaxation % 2 [5]: 37.2% | inhibition at 100 µM (isolated rat detrusor; [9]): 46.3% | IC treated/IC baseline [6]: 1.48 | Pressure threshold (%) [7, 10]: 223% | Volume threshold (%) [7, 10]: 226% | animals with gastric ulcers ([8]; 3 mg/kg oral twice a day for 4 days, group of 10 rats): 1

CS(=O)(=O)N(C(=O)CCCCCO[N+](=O)[O-])c1ccc([N+](=O)[O-])cc1Oc1ccccc1 [NO-M, N-[(2-PHENOXY-4-NITRO)PHENYL]-N-(6-NITROXY)HEXANOYLMETHANE-SULPHONAMIDE]
Inhibition % ([3]; 10^−4 M): 19.5% | Inhibition % (isolated rat detrusor; 10^−4 M, contraction induced by 40 mM KCl): 48.1%

COc1ccc2cc([C@H](C)C(=O)O)ccc2c1 [Naproxen]
inhibition at 100 µM (isolated rat detrusor; Rattus norvegicus, 5 · 10^−4 M, contraction induced by 40 mM KCl): 15.2%

O=C(NCCO[N+](=O)[O-])c1cccnc1 [Nicorandil]
inhibition at 1 µM ([3]; Rattus norvegicus, 10^−6 M): 32.6% | inhibition at 100 µM (isolated rat detrusor; [9]): 26.4%

CS(=O)(=O)Nc1ccc([N+](=O)[O-])cc1Oc1ccccc1 [Nimesulide]
inhibition at 100 µM (isolated rat detrusor; [9]): 41.8%

O=[N+]([O-])OCC(CO[N+](=O)[O-])O[N+](=O)[O-] [Nitroglycerin]
Relaxation % 1 [5]: 32.1% | Relaxation % 2 [5]: 7.3% | relaxing activity and tachyphylaxis (in words) [5]: active but induced tachyphylaxis | inhibition at 10 µM (isolated rat detrusor; Rattus norvegicus): 28.7%
